These results are taken from patent US20250059198A1, “BRM DEGRADING COMPOUNDS AND ASSOCIATED METHODS OF USE” (Arvinas Operations, Inc., priority 2021, published 2025).

For orientation: DC50 means the concentration giving 50% degradation. A higher DC50 goes with degradation only at high concentration. As a reminder, the Dmax is the largest share of the target that was removed.

For this test, the target named is T1, BRM (Homo sapiens, UniProt P51531).
T1 construct: Western Blot Screen of BRM Degradation in SW1573 Cells; endogenous in cells; host or cells: SW1573 cells
The test is described as follows: BRM degradation (Dmax and DC50) in SW1573 cells, Western blot screen / In-Cell Western screen. Conditions: overnight (18-20 hours) treatment; for Dmax: read-out: Dmax (%)** (% degraded). The class given is cell-based. In short, it runs like this:
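Dmax and DC50 were derived from BRM levels normalised to an alpha-tubulin control, measured by chemiluminescent Western blotting of lysates or by PFA-fixed In-Cell Western on LI-COR Odyssey. SW1573 cells received compound overnight (18–20 h, 0.1% DMSO final).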
Background: A western blot detects proteins with antibodies after separation by electrophoresis.

T1 sequence (P51531 whole entry): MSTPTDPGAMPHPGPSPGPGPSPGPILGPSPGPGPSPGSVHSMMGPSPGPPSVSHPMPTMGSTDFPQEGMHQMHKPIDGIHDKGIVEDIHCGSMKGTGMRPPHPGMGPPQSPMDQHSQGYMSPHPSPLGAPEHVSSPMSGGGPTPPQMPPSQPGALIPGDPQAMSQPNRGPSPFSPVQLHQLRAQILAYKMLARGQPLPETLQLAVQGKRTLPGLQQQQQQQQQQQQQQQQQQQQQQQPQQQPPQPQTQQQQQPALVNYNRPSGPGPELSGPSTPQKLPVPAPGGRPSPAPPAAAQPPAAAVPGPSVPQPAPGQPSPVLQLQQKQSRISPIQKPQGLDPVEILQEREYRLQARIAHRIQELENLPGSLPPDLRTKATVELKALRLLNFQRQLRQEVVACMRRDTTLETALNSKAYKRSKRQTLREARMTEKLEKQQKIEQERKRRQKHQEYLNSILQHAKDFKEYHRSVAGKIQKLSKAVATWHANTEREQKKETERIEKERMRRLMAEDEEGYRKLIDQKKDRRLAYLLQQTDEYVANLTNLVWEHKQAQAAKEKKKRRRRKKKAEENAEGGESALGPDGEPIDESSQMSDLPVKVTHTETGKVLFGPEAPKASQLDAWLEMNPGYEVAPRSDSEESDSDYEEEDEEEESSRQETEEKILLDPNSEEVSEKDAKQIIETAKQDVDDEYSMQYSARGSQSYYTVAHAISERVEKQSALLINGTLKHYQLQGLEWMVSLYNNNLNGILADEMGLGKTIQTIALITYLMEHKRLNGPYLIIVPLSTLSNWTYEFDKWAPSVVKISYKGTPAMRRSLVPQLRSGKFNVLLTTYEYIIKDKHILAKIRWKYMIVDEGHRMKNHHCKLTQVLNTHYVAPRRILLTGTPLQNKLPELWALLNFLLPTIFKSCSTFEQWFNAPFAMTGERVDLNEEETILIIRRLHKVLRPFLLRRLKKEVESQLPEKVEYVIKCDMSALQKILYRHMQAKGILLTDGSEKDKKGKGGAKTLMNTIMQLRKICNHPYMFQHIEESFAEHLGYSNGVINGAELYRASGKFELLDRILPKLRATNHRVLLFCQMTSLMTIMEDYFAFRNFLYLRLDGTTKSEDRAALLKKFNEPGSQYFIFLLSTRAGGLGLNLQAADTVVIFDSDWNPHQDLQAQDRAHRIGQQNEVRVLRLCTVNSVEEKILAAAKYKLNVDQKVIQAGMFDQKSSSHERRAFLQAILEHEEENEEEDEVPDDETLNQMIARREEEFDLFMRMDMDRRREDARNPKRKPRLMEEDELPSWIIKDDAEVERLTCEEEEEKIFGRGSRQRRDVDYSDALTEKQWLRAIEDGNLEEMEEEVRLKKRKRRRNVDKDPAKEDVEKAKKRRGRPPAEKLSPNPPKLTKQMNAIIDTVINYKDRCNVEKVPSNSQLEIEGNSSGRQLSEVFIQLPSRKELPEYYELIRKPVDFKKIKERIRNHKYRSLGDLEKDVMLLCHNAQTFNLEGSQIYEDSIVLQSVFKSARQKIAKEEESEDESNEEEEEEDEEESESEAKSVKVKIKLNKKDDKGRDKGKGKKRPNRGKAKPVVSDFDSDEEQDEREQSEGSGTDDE

As to `Cc1ncsc1-c1ccc([C@H](C)NC(=O)[C@@H]2C[C@@H](O)CN2C(=O)[C@@H](c2cc(N3CCC(CN4CCC5(CC4)CC(C#CC(C)n4cc(-c6cc(-c7ccccc7O)nnc6N)cn4)C5)CC3)no2)C(C)C)cc1` (stereo partly drawn) [Compound 36, (2S,4R)-1-[(2R)-2-[3-(4-{[2-(3-{4-[3-amino-6-(2-hydroxyphenyl)pyridazin-4-yl]-1H-pyrazol-1-yl}but-1-yn-1-yl)-7-azaspiro[3.5]nonan-7-yl]methyl}piperidin-1-yl)-1,2-oxazol-5-yl]-3-methylbutanoyl]-4-hydroxy-N-[(1S)-1-[4-(4-methyl-1,3-thiazol-5-yl)phenyl]ethyl]pyrrolidine-2-carboxamide], the DC50 is less than 2.5 nM and the Dmax was more than 75%.
`Cc1ncsc1-c1ccc([C@H](CC(=O)N2CCC(CN3CCC(O[C@H]4C[C@H](Oc5cc(N6C7CCC6CN(c6cc(-c8ccccc8O)nnc6N)C7)ccn5)C4)CC3)CC2)NC(=O)[C@@H]2C[C@@H](O)CN2C(=O)[C@@H](C(C)C)N2Cc3ccccc3C2=O)cc1` [Compound 37, (2S,4R)-4-hydroxy-N-[(1S)-1-[4-(4-methyl-1,3-thiazol-5-yl)phenyl]-3-oxo-3-[4-({4-[(1r,3r)-3-[(4-{3-[3-amino-6-(2-hydroxyphenyl)pyridazin-4-yl]-3,8-diazabicyclo[3.2.1]octan-8-yl}pyridin-2-yl)oxy]cyclobutoxy]piperidin-1-yl}methyl)piperidin-1-yl]propyl]-1-[(2R)-3-methyl-2-(1-oxo-2,3-dihydro-1H-isoindol-2-yl)butanoyl]pyrrolidine-2-carboxamide] came in with a DC50 not below 30 nM.
With `Cc1ncsc1-c1ccc([C@H](CC(=O)N2CCC(CN3CCC(O[C@H]4C[C@H](Oc5cc(N6C7CCC6CN(c6cc(-c8ccccc8O)nnc6N)C7)ccn5)C4)CC3)CC2)NC(=O)[C@@H]2C[C@@H](O)CN2C(=O)[C@H](C(C)C)N2Cc3ccccc3C2=O)cc1` [Compound 38, (2S,4R)-4-hydroxy-N-[(1S)-1-[4-(4-methyl-1,3-thiazol-5-yl)phenyl]-3-oxo-3-[4-({4-[(1r,3r)-3-[(4-{3-[3-amino-6-(2-hydroxyphenyl)pyridazin-4-yl]-3,8-diazabicyclo[3.2.1]octan-8-yl}pyridin-2-yl)oxy]cyclobutoxy]piperidin-1-yl}methyl)piperidin-1-yl]propyl]-1-[(2S)-3-methyl-2-(1-oxo-2,3-dihydro-1H-isoindol-2-yl)butanoyl]pyrrolidine-2-carboxamide], the DC50 is less than 2.5 nM and the Dmax is more than 75%.
The like results for `CC(C)[C@@H](C(=O)N1C[C@H](O)C[C@H]1C(=O)N[C@@H](C)c1ccc(-c2ccnn2C)cc1)c1cc(N2CCC(CN3CCC(CN4CCC5(CC4)CC(Oc4cc(N6C7CCC6CN(c6cc(-c8ccccc8O)nnc6N)C7)ccn4)C5)CC3)CC2)no1` [Compound 39, (2S,4R)-1-[(2R)-2-[3-(4-{[4-({2-[(4-{3-[3-amino-6-(2-hydroxyphenyl)pyridazin-4-yl]-3,8-diazabicyclo[3.2.1]octan-8-yl}pyridin-2-yl)oxy]-7-azaspiro[3.5]nonan-7-yl}methyl)piperidin-1-yl]methyl}piperidin-1-yl)-1,2-oxazol-5-yl]-3-methylbutanoyl]-4-hydroxy-N-[(1S)-1-[4-(1-methyl-1H-pyrazol-5-yl)phenyl]ethyl]pyrrolidine-2-carboxamide] were, in that order, less than 2.5 nM and more than 75%.
Taken in the same sequence, the figures for `CC(C)[C@@H](C(=O)N1C[C@H](O)C[C@H]1C(=O)N[C@@H](C)c1ccc(-c2c(F)cnn2C)cc1)c1cc(N2CCC(CN3CCC(O[C@H]4C[C@H](Oc5cc(N6CCN(c7cc(-c8ccccc8O)nnc7N)CC6)ccn5)C4)CC3)CC2)no1` [Compound 40, (2S,4R)-N-[(1S)-1-[4-(4-fluoro-1-methyl-1H-pyrazol-5-yl)phenyl]ethyl]-4-hydroxy-1-[(2R)-3-methyl-2-{3-[4-({4-[(1r,3r)-3-[(4-{4-[3-amino-6-(2-hydroxyphenyl)pyridazin-4-yl]piperazin-1-yl}pyridin-2-yl)oxy]cyclobutoxy]piperidin-1-yl}methyl)piperidin-1-yl]-1,2-oxazol-5-yl}butanoyl]pyrrolidine-2-carboxamide] were less than 2.5 nM and more than 75%.
The like results for `CC(C)[C@@H](C(=O)N1C[C@H](O)C[C@H]1C(=O)N[C@@H](C)c1ccc(-c2ccnn2C)cc1)c1cc(N2CCC(CN3CCC(Oc4cc(N5CCN(c6cc(-c7ccccc7O)nnc6N)CC5)ccn4)CC3)CC2)no1` [Compound 41, (2S,4R)-1-[(2R)-2-{3-[4-({4-[(4-{4-[3-amino-6-(2-hydroxyphenyl)pyridazin-4-yl]piperazin-1-yl}pyridin-2-yl)oxy]piperidin-1-yl}methyl)piperidin-1-yl]-1,2-oxazol-5-yl}-3-methylbutanoyl]-4-hydroxy-N-[(1S)-1-[4-(1-methyl-1H-pyrazol-5-yl)phenyl]ethyl]pyrrolidine-2-carboxamide] were, in that order, less than 2.5 nM and more than 75%.
On to `CC(C)[C@@H](C(=O)N1C[C@H](O)C[C@H]1C(=O)N[C@@H](C)c1ccc(-c2ccnn2C)cc1)c1cc(N2CCC(CN3CCC(O[C@H]4C[C@H](N5CCC(C(C)n6cc(C#Cc7cc(-c8ccccc8O)nnc7N)cn6)CC5)C4)CC3)CC2)no1` (stereo partly drawn) [Compound 42, (2S,4R)-4-hydroxy-N-[(1S)-1-[4-(1-methyl-1H-pyrazol-5-yl)phenyl]ethyl]-1-[(2R)-3-methyl-2-{3-[4-({4-[(1r,3r)-3-{4-[1-(4-{2-[3-amino-6-(2-hydroxyphenyl)pyridazin-4-yl]ethynyl}-1H-pyrazol-1-yl)ethyl]piperidin-1-yl}cyclobutoxy]piperidin-1-yl}methyl)piperidin-1-yl]-1,2-oxazol-5-yl}butanoyl]pyrrolidine-2-carboxamide], for which the DC50 was less than 2.5 nM and the Dmax was more than 75%.
Taken in the same sequence, the figures for `Cc1ncsc1-c1ccc([C@H](C)NC(=O)[C@@H]2C[C@@H](O)CN2C(=O)[C@@H](c2cc(N3CCC(CN4CCC(N5CCC6(CC5)CC(Oc5cc(N7C8CCC7CN(c7cc(-c9ccccc9O)nnc7N)C8)ccn5)C6)CC4)CC3)no2)C(C)C)cc1` [Compound 43, (2S,4R)-1-[(2R)-2-(3-{4-[(4-{2-[(4-{3-[3-amino-6-(2-hydroxyphenyl)pyridazin-4-yl]-3,8-diazabicyclo[3.2.1]octan-8-yl}pyridin-2-yl)oxy]-7-azaspiro[3.5]nonan-7-yl}piperidin-1-yl)methyl]piperidin-1-yl}-1,2-oxazol-5-yl)-3-methylbutanoyl]-4-hydroxy-N-[(1S)-1-[4-(4-methyl-1,3-thiazol-5-yl)phenyl]ethyl]pyrrolidine-2-carboxamide] were less than 2.5 nM and more than 75%.
Taken in the same sequence, the figures for `Cc1ncsc1-c1ccc([C@H](C)NC(=O)[C@@H]2C[C@@H](O)CN2C(=O)[C@@H](c2cc(N3CCC(CN4CCC(O[C@H]5C[C@H](N6CCC7(CC6)CC(N6C8CCC6CN(c6cc(-c9ccccc9O)nnc6N)C8)C7)C5)CC4)CC3)no2)C(C)C)cc1` [Compound 44, (2S,4R)-4-hydroxy-N-[(1S)-1-[4-(4-methyl-1,3-thiazol-5-yl)phenyl]ethyl]-1-[(2R)-3-methyl-2-{3-[4-({4-[(1r,3r)-3-(2-{3-[3-amino-6-(2-hydroxyphenyl)pyridazin-4-yl]-3,8-diazabicyclo[3.2.1]octan-8-yl}-7-azaspiro[3.5]nonan-7-yl)cyclobutoxy]piperidin-1-yl}methyl)piperidin-1-yl]-1,2-oxazol-5-yl}butanoyl]pyrrolidine-2-carboxamide] were less than 2.5 nM and more than 75%.
For `Cc1ncsc1-c1ccc([C@H](C)NC(=O)[C@H]2C[C@@H](O)CN2C(=O)[C@@H](c2cc(N3CCC(CN4CCC(O[C@H]5C[C@H](OC(=O)N6CCN(c7cc(-c8ccccc8O)nnc7N)CC6)C5)CC4)CC3)no2)C(C)C)cc1` [Compound 45, (1rs,3rs)-3-({1-[(1-{5-[(2R)-1-[(2S,4R)-4-hydroxy-2-{[(1S)-1-[4-(4-methyl-1,3-thiazol-5-yl)phenyl]ethyl]carbamoyl}pyrrolidin-1-yl]-3-methyl-1-oxobutan-2-yl]-1,2-oxazol-3-yl}piperidin-4-yl)methyl]piperidin-4-yl}oxy)cyclobutyl 4-[3-amino-6-(2-hydroxyphenyl)pyridazin-4-yl]piperazine-1-carboxylate], the DC50 is less than 2.5 nM and the Dmax was more than 75%.
Molecule `CC(C)[C@H](C(=O)N1C[C@H](O)C[C@H]1C(=O)N[C@@H](C)c1ccc(Cl)cc1)c1cc(N2CCC(CN3CCC(O[C@H]4C[C@H](Oc5cc(N6C7CCC6CN(c6cc(-c8ccccc8O)nnc6N)C7)ccn5)C4)CC3)CC2)no1` [Compound 46, (2S,4R)-N-[(1S)-1-(4-chlorophenyl)ethyl]-4-hydroxy-1-[(2S)-3-methyl-2-{3-[4-({4-[(1r,3r)-3-[(4-{3-[3-amino-6-(2-hydroxyphenyl)pyridazin-4-yl]-3,8-diazabicyclo[3.2.1]octan-8-yl}pyridin-2-yl)oxy]cyclobutoxy]piperidin-1-yl}methyl)piperidin-1-yl]-1,2-oxazol-5-yl}butanoyl]pyrrolidine-2-carboxamide] showed a DC50 not below 30 nM.
On to `Cc1ncsc1-c1ccc([C@H](C)NC(=O)[C@@H]2C[C@@H](O)CN2C(=O)[C@@H](c2cc(N3CCC(CN4CCC(O[C@H]5C[C@H](N6CCN(CC7C8CCC7CN(c7cc(-c9ccccc9O)nnc7N)C8)CC6)C5)CC4)CC3)no2)C(C)C)cc1` (stereo partly drawn) [Compound 47, (2S,4R)-4-hydroxy-N-[(1S)-1-[4-(4-methyl-1,3-thiazol-5-yl)phenyl]ethyl]-1-[(2R)-3-methyl-2-{3-[4-({4-[(1r,3r)-3-[4-({3-[3-amino-6-(2-hydroxyphenyl)pyridazin-4-yl]-3-azabicyclo[3.2.1]octan-8-yl}methyl)piperazin-1-yl]cyclobutoxy]piperidin-1-yl}methyl)piperidin-1-yl]-1,2-oxazol-5-yl}butanoyl]pyrrolidine-2-carboxamide], for which the DC50 is 2.5 to 10 nM and the Dmax is more than 75%.
